# Data reported in US20260328779A1, “METHODS AND COMPOSITIONS FOR THE DIAGNOSIS AND TREATMENT OF IGA NEPHROPATHY” (Beth Israel Deaconess Medical Center, Inc., priority 2022, published 2026).
# Columns and labels:
# anti-Tn antibodies = assay: Inhibition of anti-Tn antibody binding to Tn(+)matrix beads (fluorescent anti-IgM imaging); conditions: 20 mM preincubation, 30 min on ice; anti-human IgM detection
# Description: To investigate whether the interaction of the anti-Tn antibodies to the Tn(+)matrix is Tn antigen-dependent, fluorescent-tagged secondary antibodies were used to image the antibodies bound to the Tn(+)matrix. Strong staining for bound IgM (FIG. 3C, upper panel, green fluorescent) was observed, but no significant staining for either IgG or IgA (FIG. 3C, middle and bottom panels). The IgG and IgA1 levels in the bound material are thus either relatively low or these antigens could be cryptic within complexes and inaccessible in the context of the beads. […]
# ~50 ml of human sera was mixed with 1 ml of Tn(+)matrix beads (50% slurry in PBS) at 4° C. […] The concentration of eluted protein was determined by BCA assay (Cat #23225, Thermo Fisher Scientific). Each fraction (Input, Flow through (FT), Washes) was proportionally loaded, except elution 10 ml, and analyzed on SDS-PAGE, and stained with Coomassie, or transferred to nitrocellulose membrane (Cat #1704158, Bio-Rad) using Trans-Blot Turbo Transfer System (Bio-Rad). […] After washing 3× with TBST for 10 min, the signals were analyzed on an Amersham™ Imager 600 (GE Healthcare Life Sciences) using SuperSignal™ West Pico chemiluminescent substrate (Cat #34578, Thermo Scientific). […] The beads were washed twice with chilled 1 ml of PBS, and analyzed using a microscope (AMG EVOS FL digital inverted microscope, Fisher Scientific, ×100 magnification). […]
# anti-Tn IgM = assay: Inhibition of anti-Tn antibody binding to Tn glycopeptide array; set-up: species or system human; conditions: glycomimetic 20 mM, 30 min at RT, anti-Tn antibodies C3
# Method: The Tn glycopeptide microarray was prepared as previously described^77. Briefly, the glycopeptides printed on the microarray is as listed (FIG. 2). Purified anti-Tn antibodies (diluted to […] for IgM, and […] for IgG and IgA detection) in TSM binding buffer (20 mM Tris-HCl, pH 7.4, 150 mM NaCl, 2 mM CaCl2), 2 mM MgCl2, with 1% BSA and 0.05% Tween-20) were added to the respective array slides for 1 h at RT. Alexa Fluor #488-labeled goat anti-human IgM or goat anti-human IgG, or FITC-labeled goat anti-human IgA antibody at 1:400 dilution in TSM binding buffer was used for detection of IgM, IgG, and IgA within purified anti-Tn antibodies. Slides were analyzed on a Genepix^# 4300A microarray scanner (Molecular Devices). Images were analyzed with quantitation software (GenePix® Pro Microarray Analysis Software Ver. 7, Molecular Devices). For inhibition assay, a purified Tn(+)IgA1 produced from CosmcKO Dakiki cells was utilized (See Generation of CosmcKO Dakiki cells using CRISPR-Cas9 system for generating the antibody) to inhibit anti-Tn antibodies binding to microarray and Tn(−)IgA1 produced from Dakiki cells as a […]. Purified anti-Tn antibodies (Cl, 10 mg/ml) in TSM binding buffer was preincubated with 1 mg of purified Tn(+)IgA1, or Tn(−)IgA1 for 30 min at RT. […] Heat map and correlation map of binding preferences were analyzed using GLAD (Glycan Array Dashboard).
smiles,measurement,setting,value
CO[C@H]1O[C@H](CO)[C@H](O)[C@H](O)[C@H]1NC(C)=O [α-methylGalNAc],inhibition of binding of antibodies to the Tn(+)matrix,anti-Tn antibodies,completely inhibited
same,inhibition of anti-Tn antibody (IgM) binding to Tn glycopeptide array,anti-Tn IgM,specifically inhibited binding of the anti-Tn IgM
